# Data from the kinase profiling compilation of Christmann-Franck et al. (2016).
# What was measured:
# Experiment in all cases: radiometric filter-binding kinase assay
# DYRK2 (human) = DYRK2 (human) (UniProt Q92630)
# MAPKAPK5 (human) = MAPKAPK5 (human) (UniProt Q8IW41)
# MAPK9 (human) = MAPK9 (human) (UniProt P45984)
# CSK (human) = CSK (human) (UniProt P41240)
# MAPK8 (human) = MAPK8 (human) (UniProt P45983)
# MAPK14 (human) = MAPK14 (human) (UniProt Q16539)
# MAPK15 (human) = MAPK15 (human) (UniProt Q8TD08)
# MKNK2 (human) = MKNK2 (human) (UniProt Q9HBH9)
# PIM1 (human) = PIM1 (human) (UniProt P11309)
# HIPK2 (human) = HIPK2 (human) (UniProt Q9H2X6)
# AURKB (human) = AURKB (human) (UniProt Q96GD4)
# PRKACA (human) = PRKACA (human) (UniProt P17612)
# IGF1R (human) = IGF1R (human) (UniProt P08069)
# PAK7 (human) = PAK7 (human) (UniProt Q9P286)
# IKBKE (human) = IKBKE (human) (UniProt Q14164)
# MELK (human) = MELK (human) (UniProt Q14680)
# EPHB3 (human) = EPHB3 (human) (UniProt P54753)
# CSNK1D (human) = CSNK1D (human) (UniProt P48730)
# MAPKAPK2 (human) = MAPKAPK2 (human) (UniProt P49137)
# DYRK1A (human) = DYRK1A (human) (UniProt Q13627)
# CaMK1 (human) = CaMK1 (human) (UniProt Q14012)
# BTK (human) = BTK (human) (UniProt Q06187)
# MAPK12 (human) = MAPK12 (human) (UniProt P53778)
# YES1 (human) = YES1 (human) (UniProt P07947)
# PAK4 (human) = PAK4 (human) (UniProt O96013)
# CAMKK2 (human) = CAMKK2 (human) (UniProt Q96RR4)
# IKBKB (human) = IKBKB (human) (UniProt O14920)
# Sequence of MAPKAPK5 (human) (Q8IW41 whole entry, looked up): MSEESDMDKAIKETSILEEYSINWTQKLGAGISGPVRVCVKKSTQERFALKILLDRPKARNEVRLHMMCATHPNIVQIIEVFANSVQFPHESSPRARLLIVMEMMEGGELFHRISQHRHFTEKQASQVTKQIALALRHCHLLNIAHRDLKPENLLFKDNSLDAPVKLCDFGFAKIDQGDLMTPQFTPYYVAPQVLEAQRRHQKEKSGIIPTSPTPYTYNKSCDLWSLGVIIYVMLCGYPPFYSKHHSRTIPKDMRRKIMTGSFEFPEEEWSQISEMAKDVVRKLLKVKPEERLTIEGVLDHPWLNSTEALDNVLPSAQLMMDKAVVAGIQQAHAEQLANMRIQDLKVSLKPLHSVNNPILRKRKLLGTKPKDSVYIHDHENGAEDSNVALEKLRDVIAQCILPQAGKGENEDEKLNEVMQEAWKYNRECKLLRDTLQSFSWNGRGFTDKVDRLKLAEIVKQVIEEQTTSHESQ
# Sequence of MKNK2 (human) (Q9HBH9 whole entry, looked up): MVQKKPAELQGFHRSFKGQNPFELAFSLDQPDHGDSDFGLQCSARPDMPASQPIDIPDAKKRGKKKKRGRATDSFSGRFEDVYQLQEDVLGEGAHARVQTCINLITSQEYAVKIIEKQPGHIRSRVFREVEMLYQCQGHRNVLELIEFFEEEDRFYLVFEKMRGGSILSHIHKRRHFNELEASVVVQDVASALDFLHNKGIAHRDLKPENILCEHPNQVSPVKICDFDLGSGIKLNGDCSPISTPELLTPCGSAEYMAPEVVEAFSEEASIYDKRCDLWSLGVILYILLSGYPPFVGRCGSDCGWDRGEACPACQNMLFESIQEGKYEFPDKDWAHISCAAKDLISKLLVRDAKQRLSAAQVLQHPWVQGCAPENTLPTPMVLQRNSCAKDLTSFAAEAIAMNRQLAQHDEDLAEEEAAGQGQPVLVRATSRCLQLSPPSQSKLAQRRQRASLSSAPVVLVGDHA
# Sequence of DYRK2 (human) (Q92630 whole entry, looked up): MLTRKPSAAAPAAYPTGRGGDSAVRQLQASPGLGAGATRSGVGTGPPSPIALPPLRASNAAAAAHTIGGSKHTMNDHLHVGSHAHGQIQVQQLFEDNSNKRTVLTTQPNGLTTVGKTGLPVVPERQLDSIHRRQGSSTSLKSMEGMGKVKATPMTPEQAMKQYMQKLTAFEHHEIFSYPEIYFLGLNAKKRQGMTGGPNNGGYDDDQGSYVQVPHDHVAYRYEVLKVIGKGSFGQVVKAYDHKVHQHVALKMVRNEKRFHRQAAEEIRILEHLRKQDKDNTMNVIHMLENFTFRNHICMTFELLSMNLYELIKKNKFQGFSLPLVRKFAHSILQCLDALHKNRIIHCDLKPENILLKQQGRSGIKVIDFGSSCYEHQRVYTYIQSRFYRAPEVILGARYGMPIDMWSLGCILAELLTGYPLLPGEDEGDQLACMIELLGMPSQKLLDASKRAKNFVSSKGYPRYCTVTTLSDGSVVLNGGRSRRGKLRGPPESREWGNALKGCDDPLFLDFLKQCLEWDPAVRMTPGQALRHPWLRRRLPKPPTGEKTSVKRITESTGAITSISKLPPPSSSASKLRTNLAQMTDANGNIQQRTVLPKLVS
# Sequence of CAMKK2 (human) (Q96RR4 whole entry, looked up): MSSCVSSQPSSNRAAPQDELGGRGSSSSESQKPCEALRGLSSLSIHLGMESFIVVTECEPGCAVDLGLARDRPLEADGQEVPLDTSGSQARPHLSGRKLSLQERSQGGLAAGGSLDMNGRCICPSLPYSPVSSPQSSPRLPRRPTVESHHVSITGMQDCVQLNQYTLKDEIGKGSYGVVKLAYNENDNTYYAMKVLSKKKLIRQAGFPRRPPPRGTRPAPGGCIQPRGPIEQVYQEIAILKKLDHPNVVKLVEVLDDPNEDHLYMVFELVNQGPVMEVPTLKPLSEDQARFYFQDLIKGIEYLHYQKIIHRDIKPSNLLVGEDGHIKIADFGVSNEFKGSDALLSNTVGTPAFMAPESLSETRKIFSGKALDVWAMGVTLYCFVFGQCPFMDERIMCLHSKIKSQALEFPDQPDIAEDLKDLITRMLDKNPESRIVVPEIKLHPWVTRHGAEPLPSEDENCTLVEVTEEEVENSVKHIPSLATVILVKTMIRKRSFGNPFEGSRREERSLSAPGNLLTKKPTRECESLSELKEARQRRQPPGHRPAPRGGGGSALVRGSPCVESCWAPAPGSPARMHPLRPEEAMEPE
# Sequence of CaMK1 (human) (Q14012 whole entry, looked up): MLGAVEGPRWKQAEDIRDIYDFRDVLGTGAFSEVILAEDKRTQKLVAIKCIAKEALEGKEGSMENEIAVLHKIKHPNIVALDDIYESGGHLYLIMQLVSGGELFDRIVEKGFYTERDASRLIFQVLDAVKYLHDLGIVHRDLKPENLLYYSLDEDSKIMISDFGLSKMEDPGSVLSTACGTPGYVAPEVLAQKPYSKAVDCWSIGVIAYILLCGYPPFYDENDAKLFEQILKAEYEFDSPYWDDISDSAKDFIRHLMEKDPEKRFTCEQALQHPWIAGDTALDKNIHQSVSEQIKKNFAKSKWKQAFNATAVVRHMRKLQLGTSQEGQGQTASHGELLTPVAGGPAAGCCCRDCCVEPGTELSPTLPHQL
# Sequence of CSNK1D (human) (P48730 whole entry, looked up): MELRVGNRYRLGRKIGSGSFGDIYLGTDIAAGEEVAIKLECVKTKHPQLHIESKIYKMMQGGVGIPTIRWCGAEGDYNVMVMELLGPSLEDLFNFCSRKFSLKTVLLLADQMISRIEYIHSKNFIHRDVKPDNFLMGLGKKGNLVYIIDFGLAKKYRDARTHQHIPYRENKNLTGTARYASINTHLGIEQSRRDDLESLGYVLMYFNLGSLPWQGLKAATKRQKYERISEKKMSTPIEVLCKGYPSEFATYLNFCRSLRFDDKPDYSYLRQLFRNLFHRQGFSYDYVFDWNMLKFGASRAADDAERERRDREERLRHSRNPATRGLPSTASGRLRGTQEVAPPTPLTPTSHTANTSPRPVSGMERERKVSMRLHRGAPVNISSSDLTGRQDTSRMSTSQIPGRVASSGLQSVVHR
# Sequence of PAK4 (human) (O96013 whole entry, looked up): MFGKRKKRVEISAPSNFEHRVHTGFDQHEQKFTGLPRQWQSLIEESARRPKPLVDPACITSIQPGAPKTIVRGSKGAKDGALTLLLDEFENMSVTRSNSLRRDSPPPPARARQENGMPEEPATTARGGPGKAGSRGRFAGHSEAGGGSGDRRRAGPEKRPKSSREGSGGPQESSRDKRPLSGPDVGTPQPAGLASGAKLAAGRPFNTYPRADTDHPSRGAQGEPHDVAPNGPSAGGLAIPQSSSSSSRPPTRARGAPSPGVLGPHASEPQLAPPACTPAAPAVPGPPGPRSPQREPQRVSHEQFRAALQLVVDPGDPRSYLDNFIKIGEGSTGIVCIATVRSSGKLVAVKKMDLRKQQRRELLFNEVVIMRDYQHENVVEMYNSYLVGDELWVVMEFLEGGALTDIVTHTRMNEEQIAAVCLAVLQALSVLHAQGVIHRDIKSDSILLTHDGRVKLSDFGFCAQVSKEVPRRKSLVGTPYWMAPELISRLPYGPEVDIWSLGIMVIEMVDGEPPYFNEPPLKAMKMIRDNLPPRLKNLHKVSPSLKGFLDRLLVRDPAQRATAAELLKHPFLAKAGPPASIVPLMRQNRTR
# Sequence of BTK (human) (Q06187 whole entry, looked up): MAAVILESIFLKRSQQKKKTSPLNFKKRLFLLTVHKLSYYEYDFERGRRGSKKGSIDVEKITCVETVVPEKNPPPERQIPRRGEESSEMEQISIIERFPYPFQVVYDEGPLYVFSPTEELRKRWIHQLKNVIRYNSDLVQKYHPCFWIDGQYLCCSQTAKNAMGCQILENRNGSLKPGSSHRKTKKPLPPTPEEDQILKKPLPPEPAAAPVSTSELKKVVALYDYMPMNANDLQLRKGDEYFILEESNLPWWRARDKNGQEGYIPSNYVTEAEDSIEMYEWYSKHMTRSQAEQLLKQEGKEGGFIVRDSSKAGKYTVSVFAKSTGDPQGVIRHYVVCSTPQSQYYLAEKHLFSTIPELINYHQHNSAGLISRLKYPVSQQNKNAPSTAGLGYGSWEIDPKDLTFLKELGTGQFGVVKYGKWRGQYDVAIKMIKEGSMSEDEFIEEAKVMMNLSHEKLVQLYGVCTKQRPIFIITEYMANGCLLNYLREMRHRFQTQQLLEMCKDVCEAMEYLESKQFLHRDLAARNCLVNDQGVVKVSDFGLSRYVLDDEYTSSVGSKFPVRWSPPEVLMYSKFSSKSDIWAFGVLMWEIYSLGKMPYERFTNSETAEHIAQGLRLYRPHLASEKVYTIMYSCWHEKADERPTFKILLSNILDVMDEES
# Sequence of MAPK14 (human) (Q16539 whole entry, looked up): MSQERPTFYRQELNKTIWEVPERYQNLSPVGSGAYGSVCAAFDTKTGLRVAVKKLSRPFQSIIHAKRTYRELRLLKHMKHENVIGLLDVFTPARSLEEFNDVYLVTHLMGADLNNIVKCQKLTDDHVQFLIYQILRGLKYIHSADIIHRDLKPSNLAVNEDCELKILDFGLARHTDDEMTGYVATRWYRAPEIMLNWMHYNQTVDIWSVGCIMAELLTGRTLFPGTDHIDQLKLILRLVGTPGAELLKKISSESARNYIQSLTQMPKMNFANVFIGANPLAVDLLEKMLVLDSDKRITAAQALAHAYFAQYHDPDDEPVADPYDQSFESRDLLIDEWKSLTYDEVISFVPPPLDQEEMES
# Sequence of PIM1 (human) (P11309 whole entry, looked up): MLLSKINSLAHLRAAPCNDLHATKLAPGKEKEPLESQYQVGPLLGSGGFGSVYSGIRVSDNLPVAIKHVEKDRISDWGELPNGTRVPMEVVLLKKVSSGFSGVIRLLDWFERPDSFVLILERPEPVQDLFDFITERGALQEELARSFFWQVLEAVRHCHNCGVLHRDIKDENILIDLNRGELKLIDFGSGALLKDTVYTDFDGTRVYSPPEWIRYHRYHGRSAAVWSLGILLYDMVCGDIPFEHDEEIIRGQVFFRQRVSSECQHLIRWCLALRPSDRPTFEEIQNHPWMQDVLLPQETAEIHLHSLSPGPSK
smiles,measurement,setting,value
O=C1NC(=S)N[C@@H]1Cc1c[nH]c2ccccc12,residual activity,DYRK2 (human); compound 1.0 µM,82%
same,residual activity,DYRK2 (human); compound 10.0 µM,98%
same,residual activity,MAPKAPK5 (human); compound 1.0 µM,89%
same,residual activity,MAPKAPK5 (human); compound 10.0 µM,100%
same,residual activity,MAPK9 (human); compound 1.0 µM,91%
same,residual activity,MAPK9 (human); compound 10.0 µM,95%
same,residual activity,CSK (human); compound 1.0 µM,101%
same,residual activity,CSK (human); compound 10.0 µM,104%
same,residual activity,MAPK8 (human); compound 1.0 µM,83%
same,residual activity,MAPK8 (human); compound 10.0 µM,107%
same,residual activity,MAPK14 (human); compound 1.0 µM,76%
same,residual activity,MAPK14 (human); compound 10.0 µM,82%
same,residual activity,MAPK15 (human); compound 1.0 µM,104%
same,residual activity,MAPK15 (human); compound 10.0 µM,94%
same,residual activity,MKNK2 (human); compound 1.0 µM,92%
same,residual activity,MKNK2 (human); compound 10.0 µM,97%
same,residual activity,PIM1 (human); compound 1.0 µM,89%
same,residual activity,PIM1 (human); compound 10.0 µM,93%
same,residual activity,HIPK2 (human); compound 10.0 µM,92%
same,residual activity,AURKB (human); compound 1.0 µM,100%
same,residual activity,AURKB (human); compound 10.0 µM,106%
same,residual activity,PRKACA (human); compound 1.0 µM,80%
same,residual activity,PRKACA (human); compound 10.0 µM,95%
same,residual activity,IGF1R (human); compound 1.0 µM,113%
same,residual activity,IGF1R (human); compound 10.0 µM,100%
same,residual activity,PAK7 (human); compound 1.0 µM,97%
same,residual activity,PAK7 (human); compound 10.0 µM,108%
same,residual activity,IKBKE (human); compound 1.0 µM,84%
same,residual activity,IKBKE (human); compound 10.0 µM,93%
same,residual activity,MELK (human); compound 1.0 µM,84%
same,residual activity,MELK (human); compound 10.0 µM,100%
same,residual activity,EPHB3 (human); compound 1.0 µM,81%
same,residual activity,CSNK1D (human); compound 1.0 µM,105%
same,residual activity,CSNK1D (human); compound 10.0 µM,115%
same,residual activity,MAPKAPK2 (human); compound 1.0 µM,72%
same,residual activity,MAPKAPK2 (human); compound 10.0 µM,96%
same,residual activity,DYRK1A (human); compound 1.0 µM,85%
same,residual activity,DYRK1A (human); compound 10.0 µM,92%
same,residual activity,CaMK1 (human); compound 1.0 µM,89%
same,residual activity,CaMK1 (human); compound 10.0 µM,104%
same,residual activity,BTK (human); compound 1.0 µM,84%
same,residual activity,BTK (human); compound 10.0 µM,99%
same,residual activity,MAPK12 (human); compound 1.0 µM,103%
same,residual activity,MAPK12 (human); compound 10.0 µM,96%
same,residual activity,YES1 (human); compound 1.0 µM,85%
same,residual activity,YES1 (human); compound 10.0 µM,96%
same,residual activity,PAK4 (human); compound 1.0 µM,103%
same,residual activity,PAK4 (human); compound 10.0 µM,106%
same,residual activity,CAMKK2 (human); compound 1.0 µM,79%
same,residual activity,CAMKK2 (human); compound 10.0 µM,95%
C/C(=C1/C(=O)Nc2ccc(NC(N)=O)cc21)c1ccc[nH]1,residual activity,DYRK2 (human); compound 0.001 µM,88%
same,residual activity,DYRK2 (human); compound 0.01 µM,59%
same,residual activity,DYRK2 (human); compound 0.1 µM,18%
same,residual activity,MAPKAPK5 (human); compound 0.001 µM,100%
same,residual activity,MAPKAPK5 (human); compound 0.01 µM,90%
same,residual activity,MAPKAPK5 (human); compound 0.1 µM,94%
same,residual activity,MAPK9 (human); compound 0.01 µM,123%
same,residual activity,MAPK9 (human); compound 0.1 µM,118%
same,residual activity,CSK (human); compound 0.01 µM,97%
same,residual activity,CSK (human); compound 0.1 µM,102%
same,residual activity,MAPK8 (human); compound 0.001 µM,114%
same,residual activity,MAPK8 (human); compound 0.01 µM,117%
same,residual activity,MAPK8 (human); compound 0.1 µM,106%
same,residual activity,MAPK14 (human); compound 0.001 µM,87%
same,residual activity,MAPK14 (human); compound 0.01 µM,86%
same,residual activity,MAPK14 (human); compound 0.1 µM,84%
same,residual activity,IKBKB (human); compound 0.001 µM,76%
same,residual activity,IKBKB (human); compound 0.01 µM,74%
same,residual activity,MAPK15 (human); compound 0.001 µM,85%
same,residual activity,MAPK15 (human); compound 0.01 µM,49%
same,residual activity,MAPK15 (human); compound 0.1 µM,7%
same,residual activity,MKNK2 (human); compound 0.001 µM,93%
same,residual activity,MKNK2 (human); compound 0.01 µM,86%
same,residual activity,MKNK2 (human); compound 0.1 µM,78%
same,residual activity,PIM1 (human); compound 0.001 µM,97%
same,residual activity,PIM1 (human); compound 0.01 µM,98%
same,residual activity,PIM1 (human); compound 0.1 µM,69%
same,residual activity,HIPK2 (human); compound 0.001 µM,89%
same,residual activity,HIPK2 (human); compound 0.01 µM,82%
same,residual activity,HIPK2 (human); compound 0.1 µM,51%
same,residual activity,PRKACA (human); compound 0.001 µM,92%
same,residual activity,PRKACA (human); compound 0.01 µM,87%
same,residual activity,PRKACA (human); compound 0.1 µM,81%
same,residual activity,IGF1R (human); compound 0.1 µM,94%
same,residual activity,PAK7 (human); compound 0.001 µM,84%
same,residual activity,PAK7 (human); compound 0.1 µM,78%
same,residual activity,IKBKE (human); compound 0.001 µM,85%
same,residual activity,IKBKE (human); compound 0.01 µM,84%
same,residual activity,IKBKE (human); compound 0.1 µM,69%
same,residual activity,MELK (human); compound 0.001 µM,86%
same,residual activity,MELK (human); compound 0.01 µM,47%
same,residual activity,MELK (human); compound 0.1 µM,9%
same,residual activity,EPHB3 (human); compound 0.001 µM,114%
same,residual activity,EPHB3 (human); compound 0.01 µM,99%
same,residual activity,EPHB3 (human); compound 0.1 µM,101%
same,residual activity,CSNK1D (human); compound 0.001 µM,94%
same,residual activity,CSNK1D (human); compound 0.01 µM,94%
same,residual activity,CSNK1D (human); compound 0.1 µM,89%
same,residual activity,MAPKAPK2 (human); compound 0.001 µM,98%
same,residual activity,MAPKAPK2 (human); compound 0.01 µM,86%
same,residual activity,DYRK1A (human); compound 0.001 µM,110%
same,residual activity,DYRK1A (human); compound 0.01 µM,91%
same,residual activity,DYRK1A (human); compound 0.1 µM,67%
same,residual activity,CaMK1 (human); compound 0.001 µM,104%
same,residual activity,CaMK1 (human); compound 0.01 µM,116%
same,residual activity,CaMK1 (human); compound 0.1 µM,103%
same,residual activity,BTK (human); compound 0.001 µM,95%
same,residual activity,BTK (human); compound 0.01 µM,85%
same,residual activity,BTK (human); compound 0.1 µM,93%
same,residual activity,MAPK12 (human); compound 0.001 µM,89%
same,residual activity,MAPK12 (human); compound 0.01 µM,87%
same,residual activity,MAPK12 (human); compound 0.1 µM,82%
same,residual activity,YES1 (human); compound 0.001 µM,77%
same,residual activity,YES1 (human); compound 0.01 µM,60%
same,residual activity,YES1 (human); compound 0.1 µM,42%
same,residual activity,PAK4 (human); compound 0.001 µM,80%
same,residual activity,PAK4 (human); compound 0.01 µM,85%
same,residual activity,PAK4 (human); compound 0.1 µM,76%
same,residual activity,CAMKK2 (human); compound 0.001 µM,101%
same,residual activity,CAMKK2 (human); compound 0.01 µM,90%
same,residual activity,CAMKK2 (human); compound 0.1 µM,60%
